Results on one substance are retold here after patent US6353120B2, “Process for the preparation of a paclitaxel C-4 methyl carbonate analog” (Bristol-Myers Squibb Company, priority 1999, dated 2002).

The test system of one experiment is tubulin. The experiment can be described thus: tubulin polymerization assay. Type of experiment: biochemical.
Experiment [1] deals with M109 murine lung carcinoma. Description: distal site tumor model, M109 murine lung carcinoma. Type of experiment: in vivo.
Experiment [2] concerns HCT/pk human colon carcinoma xenograft (multidrug resistant tumor model). Description: distal site tumor model, HCT/pk human colon carcinoma xenograft. Type of experiment: in vivo. (In general: A xenograft is tissue or cells of one species grown in another, often human tumour cells in immunodeficient mice.)
Experiment [3] concerns L2987 human lung carcinoma xenograft. The experiment can be described thus: distal site tumor model, L2987 human lung carcinoma xenograft. Format: in vivo.
The test system of experiment [4] is HOC79, a clinically derived Taxol unresponsive ovarian carcinoma xenograft. Description: distal site tumor model, HOC79 ovarian carcinoma xenograft. Format: in vivo.

As to “C-4 methylcarbonate analog of paclitaxel [Compound I]”, the “potency in tubulin polymerization relative to paclitaxel” value with tubulin is “about twice as potent as paclitaxel”. In addition, the “antitumor activity compared with paclitaxel” value in experiment [1], in experiment [2], in experiment [3] and in experiment [4] was “superior to paclitaxel” throughout.
